# In patent publication EP3529257B1, “[…] METHODS OF USE THEREOF” (Sage Therapeutics, Inc., priority 2016, dated 2018):
# Tests used:
# [1] = molecular target: T1, GluN2B glutamate receptors (Homo sapiens, UniProt Q05586+Q13224); assay: Whole-cell patch clamp of mammalian cells (Ionworks Barracuda), positive allosteric modulation (PAM) of NMDA receptor, 2B; type: cell-based; conditions: for Emax / Avg Emax 2B (%): % activation of current elicited with EC20 L-glutamate and 30 µM glycine; for EC50: co-application with EC20 L-glutamate and 30 µM glycine, 8-point concentration-response
# T1 construct: expressed in transfected cells; host or cells: mammalian cells (line not described for GluN2B)
# Procedure: (§1) The measurements were perfomed using Ion Works Barracuda platform following this procedure: • Electrophysiological Procedures: • a) Intracellular solution (mM): 50 mM CsCl, 90 mM CsF, 2 mM MgCl2, 5 mM EGTA, 10 mM HEPES. Adjust to pH 7.2 with CsOH. • b) Extracellular solution, HB-PS (composition in mM): NaCl, 137; KCl, 1.0; CaCl2, 5; HEPES, 10; Glucose, 10; pH adjusted to 7.4 with NaOH (refrigerated until use). • c) Holding potential: -70 mV, potential during agonist/PAM application: -40 mV. • Recording procedure: • a) Extracellular buffer will be loaded into the PPC plate wells (11 µL per well). Cell suspension will be pipetted into the wells (9 µL per well) of the PPC planar electrode. • b) Whole-cell recording configuration will be established via patch perforation with membrane currents recorded by on-board patch clamp amplifiers. • c) Two recordings (scans) will be performed. First, during pre-application of test article alone (duration of pre-application - 5 min) and second, during test articles and agonist (EC20 L-glutamate and 30 µM glycine) co-application to detect positive modulatory effects of the test article.
# (§2) Test Article Administration: The first pre-application will consist of the addition of 20 µL of 2X concentrated test article solution and, second, of 20 µL of 1X concentrated test article and agonist at 10 µL/s (2 second total application time).
# (§3) PAM concentration-response data will be fitted to an equation of the form: % Activation = % L−glutamate EC20 + {(%MAX−%L−glutamateEC20)/[1+(([Test]/; EC50))^N]}, [formula] where [Test] will be the concentration of PAM (test article), EC50 will be the concentration of PAM producing half-maximal activation, N will be the Hill coefficient, % L-glutamate EC20 will be the percentage of the current Elicited with L-glutamate EC20, % MAX is the percentage of the current activated with the highest dose of PAM co-admitted with L-glutamate EC20 and % Activation will be the percentage of the current elicited with L-glutamate EC10-30 at each PAM concentration.
# (§4) The maximal amplitude of the evoked currents are measured and defined as Peak Current Amplitude (PCA).
# [2] = molecular target: T2, GlunN1/GluN2A glutamate receptors (Homo sapiens, UniProt Q05586+Q12879); assay: Whole-cell patch clamp of mammalian cells (Ionworks Barracuda), positive allosteric modulation (PAM) of NMDA receptor, 2A; type: cell-based; conditions: for Emax: HEK293, HEK293 cells; for Emax / Avg Emax 2A (%): % activation of current elicited with EC20 L-glutamate and 30 µM glycine; for Avg Emax 2A (%) / EC50: HEK293 cells; for EC50: co-application with EC20 L-glutamate and 30 µM glycine, 8-point concentration-response
# T2 construct: expressed in transfected cells
# Procedure: as §1, §2, §3, §4
# T1 sequence (Q13224 27-1484, other chains not shown): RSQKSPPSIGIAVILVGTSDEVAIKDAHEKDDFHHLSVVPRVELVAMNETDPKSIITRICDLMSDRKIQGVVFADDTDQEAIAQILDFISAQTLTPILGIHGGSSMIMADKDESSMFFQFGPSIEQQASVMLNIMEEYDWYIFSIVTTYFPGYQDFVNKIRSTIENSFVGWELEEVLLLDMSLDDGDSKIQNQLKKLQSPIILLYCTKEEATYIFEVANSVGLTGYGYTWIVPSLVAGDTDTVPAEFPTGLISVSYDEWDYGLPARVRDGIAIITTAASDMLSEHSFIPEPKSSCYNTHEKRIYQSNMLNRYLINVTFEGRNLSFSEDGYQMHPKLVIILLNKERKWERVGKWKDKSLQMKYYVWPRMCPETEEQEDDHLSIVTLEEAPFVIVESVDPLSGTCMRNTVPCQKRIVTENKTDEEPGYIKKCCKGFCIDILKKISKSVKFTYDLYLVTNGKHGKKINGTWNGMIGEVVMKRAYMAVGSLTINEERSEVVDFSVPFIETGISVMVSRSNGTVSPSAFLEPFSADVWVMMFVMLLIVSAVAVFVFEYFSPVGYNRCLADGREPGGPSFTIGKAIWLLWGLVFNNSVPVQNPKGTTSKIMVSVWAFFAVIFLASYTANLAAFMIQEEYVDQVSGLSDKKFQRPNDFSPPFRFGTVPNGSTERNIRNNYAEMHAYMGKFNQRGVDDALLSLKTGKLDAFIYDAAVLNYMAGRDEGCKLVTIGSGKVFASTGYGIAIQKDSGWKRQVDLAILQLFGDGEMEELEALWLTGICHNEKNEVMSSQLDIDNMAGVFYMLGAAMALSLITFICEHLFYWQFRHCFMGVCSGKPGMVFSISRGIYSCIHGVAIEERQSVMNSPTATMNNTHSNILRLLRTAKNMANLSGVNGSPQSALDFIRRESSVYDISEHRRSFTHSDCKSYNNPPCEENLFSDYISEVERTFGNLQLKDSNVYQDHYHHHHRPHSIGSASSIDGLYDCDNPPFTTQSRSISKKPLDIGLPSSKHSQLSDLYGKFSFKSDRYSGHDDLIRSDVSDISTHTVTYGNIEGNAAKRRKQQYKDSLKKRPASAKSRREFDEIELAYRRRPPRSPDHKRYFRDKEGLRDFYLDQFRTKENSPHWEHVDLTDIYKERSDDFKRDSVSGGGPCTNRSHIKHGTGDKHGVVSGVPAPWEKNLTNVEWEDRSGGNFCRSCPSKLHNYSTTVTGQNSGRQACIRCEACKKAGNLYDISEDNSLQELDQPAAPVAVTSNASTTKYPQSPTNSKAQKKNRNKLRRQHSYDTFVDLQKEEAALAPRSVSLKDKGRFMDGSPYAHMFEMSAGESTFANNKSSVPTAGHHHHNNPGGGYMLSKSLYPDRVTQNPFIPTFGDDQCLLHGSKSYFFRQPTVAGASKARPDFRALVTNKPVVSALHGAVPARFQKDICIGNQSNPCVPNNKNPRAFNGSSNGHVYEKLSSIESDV
# T2 sequence (Q12879 23-1464, other chains not shown): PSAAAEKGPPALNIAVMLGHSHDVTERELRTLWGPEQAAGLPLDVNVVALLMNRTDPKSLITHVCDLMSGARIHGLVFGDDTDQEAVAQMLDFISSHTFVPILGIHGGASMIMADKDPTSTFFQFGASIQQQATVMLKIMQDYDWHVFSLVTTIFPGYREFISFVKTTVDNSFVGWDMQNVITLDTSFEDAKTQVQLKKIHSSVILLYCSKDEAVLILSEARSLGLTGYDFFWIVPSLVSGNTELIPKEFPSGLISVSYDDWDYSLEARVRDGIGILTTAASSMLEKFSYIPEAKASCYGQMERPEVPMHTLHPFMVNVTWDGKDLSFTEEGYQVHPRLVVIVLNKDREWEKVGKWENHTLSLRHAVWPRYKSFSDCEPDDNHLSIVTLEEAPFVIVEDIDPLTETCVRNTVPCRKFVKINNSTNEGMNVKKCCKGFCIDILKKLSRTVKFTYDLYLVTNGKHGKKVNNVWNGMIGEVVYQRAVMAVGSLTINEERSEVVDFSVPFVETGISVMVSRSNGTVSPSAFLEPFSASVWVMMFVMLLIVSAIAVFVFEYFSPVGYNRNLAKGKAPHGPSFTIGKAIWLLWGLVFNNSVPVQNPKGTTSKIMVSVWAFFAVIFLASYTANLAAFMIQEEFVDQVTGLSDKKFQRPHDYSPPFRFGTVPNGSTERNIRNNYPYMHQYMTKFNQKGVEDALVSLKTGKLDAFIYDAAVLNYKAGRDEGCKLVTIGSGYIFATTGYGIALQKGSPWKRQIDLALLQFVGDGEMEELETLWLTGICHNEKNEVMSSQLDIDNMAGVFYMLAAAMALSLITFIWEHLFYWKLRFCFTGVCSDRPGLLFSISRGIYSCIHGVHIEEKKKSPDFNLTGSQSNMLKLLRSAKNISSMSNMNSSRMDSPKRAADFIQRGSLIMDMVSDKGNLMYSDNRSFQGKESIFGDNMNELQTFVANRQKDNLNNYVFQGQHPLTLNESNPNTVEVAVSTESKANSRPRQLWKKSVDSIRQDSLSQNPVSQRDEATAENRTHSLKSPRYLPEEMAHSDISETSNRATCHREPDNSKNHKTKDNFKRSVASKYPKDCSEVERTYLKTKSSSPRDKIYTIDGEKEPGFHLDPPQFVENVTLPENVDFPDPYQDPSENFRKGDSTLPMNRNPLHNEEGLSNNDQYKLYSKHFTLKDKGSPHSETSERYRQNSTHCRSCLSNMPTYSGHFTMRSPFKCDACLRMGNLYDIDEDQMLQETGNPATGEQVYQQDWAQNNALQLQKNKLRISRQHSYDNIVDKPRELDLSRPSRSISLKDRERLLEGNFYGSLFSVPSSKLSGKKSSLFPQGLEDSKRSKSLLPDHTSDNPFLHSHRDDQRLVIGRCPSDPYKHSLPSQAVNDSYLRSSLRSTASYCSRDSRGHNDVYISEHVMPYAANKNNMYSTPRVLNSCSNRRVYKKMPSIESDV
Compound,Emax [1],Emax [2],Avg Emax 2B (%) [1],EC50 [1],Avg Emax 2A (%) [2],EC50 [2]
"CCC1(O)CCC2C(=CCC3C2CCC2(C)C(C(C)CCC4(O)CCOC4)CCC32)C1 (single isomer, unassigned) [Compound 8602]",262%,272%,–,–,–,–
CC[C@]1(O)CC[C@H]2C(=CC[C@@H]3[C@@H]2CC[C@]2(C)[C@@H]([C@H](C)CC[C@]4(O)CCOC4)CC[C@@H]32)C1 [Compound 8603],271%,294%,–,–,–,–
C[C@H](CCC1(O)CCC(OC(F)F)CC1)[C@H]1CC[C@H]2[C@@H]3CC[C@H]4C[C@](O)(C(F)(F)F)CC[C@]4(C)[C@H]3CC[C@]12C (some centres unmarked) [Compound 5131],–,–,39.0%,> 10 µM,52.9%,0.0336 µM
C[C@H](CCCC1(O)CC1)[C@H]1CC[C@H]2[C@@H]3CC[C@H]4C[C@](O)(C(F)(F)F)CC[C@]4(C)[C@H]3CC[C@]12C [Compound 4115],195%,186%,–,–,–,–
C[C@H](CCC1(O)CCC(C)(C)CC1)[C@H]1CC[C@H]2[C@@H]3CC[C@@H]4C[C@](O)(C(F)(F)F)CC[C@]4(C)[C@H]3C(=O)C[C@]12C [Compound 5294],–,–,13.9%,> 10 µM,32.4%,> 10 µM
C[C@H](CCC(O)(c1ccccc1)C(F)(F)F)[C@H]1CC[C@H]2[C@@H]3CC=C4C[C@@](C)(O)CC[C@]4(C)[C@H]3CC[C@]12C (some centres unmarked) [Compound 559],–,–,373.2%,1.56 µM,204.3%,1.57 µM
C[C@H](CCC1(O)CCOCC1)[C@H]1CC[C@H]2[C@@H]3CC[C@H]4C[C@](O)(C(F)(F)F)CC[C@]4(C)[C@H]3CC[C@]12C [Compound 11],–,–,157.4%,0.104 µM,151.2%,0.117 µM
C[C@H](CCC[C@@H](C)O)[C@H]1CC[C@H]2[C@@H]3CC[C@H]4C[C@](O)(C(F)(F)F)CC[C@]4(C)[C@H]3CC[C@]12C [Compound 112],–,–,150.8%,0.478 µM,92.6%,0.48 µM
C[C@H](CCC[C@H](O)C(C)(C)C)[C@H]1CC[C@H]2[C@@H]3CC[C@H]4C[C@](O)(C(F)(F)F)CC[C@]4(C)[C@H]3CC[C@]12C [Compound 12156],–,–,111.2%,2.46 µM,43.2%,0.154 µM
C[C@H](CC[C@](C)(O)C(F)(F)F)[C@H]1CC[C@H]2[C@@H]3CC=C4C[C@](O)(C(F)(F)F)CC[C@]4(C)[C@H]3CC[C@]12C [Compound 3035],611%,323%,–,–,–,–
C[C@H](O)CCC[C@@H](C)[C@H]1CC[C@H]2[C@@H]3CC[C@H]4C[C@](O)(C(F)(F)F)CC[C@]4(C)[C@H]3CC[C@]12C [Compound 2113],–,–,285.0%,0.413 µM,402.7%,0.38 µM
C[C@H](CC[C@]1(O)CC[C@H](C)CC1)[C@H]1CC[C@H]2[C@@H]3CC[C@H]4C[C@](O)(C(F)(F)F)CC[C@]4(C)[C@H]3CC[C@]12C [Compound 3877],71.1%,42.4%,–,–,–,–
C[C@H](O)CC[C@@H](C)[C@H]1CC[C@H]2[C@@H]3CC[C@H]4C[C@](O)(C(F)(F)F)CC[C@]4(C)[C@H]3CC[C@]12C [Compound 6],163%,137%,–,–,–,–
C[C@H](CCC1(O)CCC(F)(F)CC1)[C@H]1CC[C@H]2[C@@H]3CC[C@H]4C[C@](O)(C(F)(F)F)CC[C@]4(C)[C@H]3CC[C@]12C [Compound 8],322%,402%,–,–,–,–
C[C@H](CC[C@H](O)C(C)(C)C)[C@H]1CC[C@H]2[C@@H]3CC=C4C[C@](O)(C(F)(F)F)CC[C@]4(C)[C@H]3CC[C@]12C [Compound 3507],241%,166%,–,–,–,–
"CCC1(O)CCC2(C)C(=CCC3C2CCC2(C)C(C(C)CCC(O)c4ccccc4F)CCC32)C1 (single isomer, unassigned) [Compound 7281]",126%,98.1%,–,–,–,–
CC[C@]1(O)CC[C@@]2(C)C(=CC[C@H]3[C@@H]4CC[C@H]([C@H](C)CC[C@H](O)c5ccc(F)cc5)[C@@]4(C)CC[C@@H]32)C1 [Compound 7146],167%,104%,–,–,–,–

Compound,Emax [1],Emax [2],Avg Emax 2B (%) [1],EC50 [1],Avg Emax 2A (%) [2],EC50 [2]
C[C@H](CC[C@@H](O)C(C)(C)C)[C@H]1CC[C@H]2[C@@H]3CC=C4C[C@](O)(C(F)(F)F)CC[C@]4(C)[C@H]3CC[C@]12C [Compound 3382],461%,309%,–,–,–,–
CC[C@]1(O)CC[C@H]2C(=CC[C@@H]3[C@@H]2CC[C@]2(C)[C@@H]([C@H](C)CC[C@H](O)C(C)C)CC[C@@H]32)C1 [Compound 8462],281%,273%,–,–,–,–
CC(C)[C@H](O)CC[C@@H](C)[C@H]1CC[C@H]2[C@@H]3CC[C@H]4C[C@@](C)(O)CC[C@@H]4[C@H]3CC[C@]12C [Compound 1B75],–,–,233.1%,0.183 µM,278.8%,0.165 µM
CC[C@]1(O)CC[C@@]2(C)[C@@H](CC[C@@H]3[C@@H]2CC[C@]2(C)[C@@H]([C@H](C)CC[C@@H](O)c4ccccn4)CC[C@@H]32)C1 [Compound 7030],–,–,–,–,–,> 10 µM
C[C@H](CCC1(O)CCC(C(C)(C)C)CC1)[C@H]1CC[C@H]2[C@@H]3CC[C@H]4C[C@](O)(C(F)(F)F)CC[C@]4(C)[C@H]3CC[C@]12C (some centres unmarked) [Compound 4360],14.6%,38.1%,–,> 10 µM,–,> 10 µM
C[C@H](CC[C@@](C)(O)c1ccccc1)[C@H]1CC[C@H]2[C@@H]3CC=C4C[C@@](C)(O)CC[C@]4(C)[C@H]3CC[C@]12C [Compound 7467],8.8%,20.5%,–,–,–,–
CC[C@]1(O)CC[C@H]2C(=CC[C@@H]3[C@@H]2CC[C@]2(C)[C@@H]([C@H](C)CC[C@@H](O)C(C)C)CC[C@@H]32)C1 [Compound 8463],324%,291%,–,–,–,–
CC(C)[C@H](O)CC[C@@H](C)[C@H]1CC[C@H]2[C@@H]3CC=C4C[C@](O)(C(F)(F)F)CC[C@]4(C)[C@H]3CC[C@]12C [Compound 1-B],285%,262%,–,–,–,–
CC(C)[C@@H](O)CC[C@@H](C)[C@H]1CC[C@H]2[C@@H]3CC[C@H]4C[C@@](C)(O)CC[C@@H]4[C@H]3CC[C@]12C [Compound 1A75],–,–,308.0%,0.44 µM,457.2%,0.671 µM
C[C@H](CCC1(O)CCOC1)[C@H]1CC[C@H]2[C@@H]3CC=C4C[C@](O)(C(F)(F)F)CC[C@]4(C)[C@H]3CC[C@]12C (some centres unmarked) [Compound 10],362%,632%,–,–,–,–
C[C@H](CC[C@H](O)C(C)(C)C)[C@H]1CC[C@H]2[C@@H]3CC[C@@H]4C[C@](O)(C(F)(F)F)CC[C@]4(C)[C@H]3CC[C@]12C [Compound 3634],379%,221%,–,–,–,–
C[C@H](CCC1(O)CCCCCC1)[C@H]1CC[C@H]2[C@@H]3CC[C@H]4C[C@](O)(C(F)(F)F)CC[C@]4(C)[C@H]3CC[C@]12C [Compound 3983],300%,176%,–,–,–,–
CC[C@]1(O)CC[C@@]2(C)[C@@H](CC[C@@H]3[C@@H]2CC[C@]2(C)[C@@H]([C@H](C)CC[C@H](O)c4ccccn4)CC[C@@H]32)C1 [Compound 7032],–,–,–,–,–,> 10 µM
C[C@H](CC[C@@H](O)C(C)(C)C)[C@H]1CC[C@H]2[C@@H]3CC[C@@H]4C[C@](O)(C(F)(F)F)CC[C@]4(C)[C@H]3CC[C@]12C [Compound 3788],410%,229%,–,–,–,–
CCC(O)CCC[C@@H](C)[C@H]1CC[C@H]2[C@@H]3CC=C4C[C@](O)(CC)CC[C@@H]4[C@H]3CC[C@]12C (some centres unmarked) [Compound 10673],–,–,213.5%,0.18 µM,215.5%,0.254 µM
CC[C@]1(O)CC[C@H]2C(=CC[C@@H]3[C@@H]2CC[C@]2(C)[C@@H]([C@H](C)CCCC4(O)CCC(C)(C)CC4)CC[C@@H]32)C1 [Compound 10317],–,–,59.9%,> 10 µM,56.7%,> 10 µM
C[C@H](CCC(O)Cc1ccccc1)[C@H]1CC[C@H]2[C@@H]3CC=C4C[C@@](C)(O)CC[C@]4(C)[C@H]3CC[C@]12C (some centres unmarked) [Compound 660],–,–,281.1%,0.517 µM,195.2%,0.701 µM
